Results taken from US9465288B2, “Sulfonium salt compound, method for producing the same, and photoacid generator” (DSP GOKYO FOOD & CHEMICAL CO., LTD., priority 2012, dated 2016).

Experiments:
[1] = Ultraviolet-visible absorption spectrum, molecular extinction coefficient at 365 nm; assay type: physicochemical; conditions: 1×10^−4 mol/L acetonitrile solution; reference range 50 to 2000
Experimental: A 1×10^−4 mol/L acetonitrile solution of each test compound was prepared, and the molecular extinction coefficient at 365 nm in the ultraviolet-visible absorption spectrum was measured using an ultraviolet-visible spectrophotometer (UV-2400PC, manufactured by SHIMADZU CORPORATION). […] Considering that light would be transmitted to a deep portion of a thick film, the reference range of the molecular extinction coefficient at 365 nm (i-line) was set to 50 to 2000. The sulfonium compounds falling within this range were evaluated as having desirable properties.

[2] = Solubility: amount of PGMEA necessary for dissolving 100 mg of test compound; assay type: physicochemical; conditions: for PGMEA (amount necessary for dissolving the test compound): 100 mg test compound, 20±5° C., 30 minutes with 30-second strong shaking every 5 minutes, 300 μL or less desirable
Experimental: The thus obtained sulfonium salt compounds were used as test compounds. PGMEA was added to 100 mg of each test compound, and the amount of PGMEA necessary for dissolving the test compound therein after the elapse of 30 minutes by repeating 30-second strong shaking at 20±5° C. every 5 minutes was measured. Here, “dissolving” means to reach the state where no insoluble matter can be observed by visual inspection, specifically, means that the resultant solution is clear, or a mixture in an arbitrary ratio becomes transparent. […] In Table 1 below, sulfonium salt compounds with an amount of PGMEA of 300 μL or less were evaluated as having desirable properties.

CCCCOc1ccc2ccc(OCCCC)c([S+](CCCC)CCCC)c2c1.O=S(=O)([N-]S(=O)(=O)C(F)(F)C(F)(F)C(F)(F)C(F)(F)F)C(F)(F)C(F)(F)C(F)(F)C(F)(F)F [Ex. 1, 1-(2,7-di-n-butoxynaphthyl)di-n-butylsulfonium di(1,1,2,2,3,3,4,4,4-nonafluorobutanesulfone)imide]
Molecular extinction coefficient (365 nm) [1]: 580 | PGMEA (amount necessary for dissolving the test compound) [2]: 100 µL

CCCCOc1cc(OCCCC)c2ccccc2c1[S+](CCCC)CCCC.O=S(=O)([N-]S(=O)(=O)C(F)(F)C(F)(F)C(F)(F)C(F)(F)F)C(F)(F)C(F)(F)C(F)(F)C(F)(F)F [Ex. 5, 1-(2,4-di-n-butoxynaphthyl)di-n-butylsulfonium di(1,1,2,2,3,3,4,4,4-nonafluorobutanesulfone)imide]
Molecular extinction coefficient (365 nm) [1]: 100 | PGMEA (amount necessary for dissolving the test compound) [2]: 100 µL

CCCCOc1ccc([S+](CCCC)CCCC)c2c(OCCCC)cccc12.O=S(=O)([N-]S(=O)(=O)C(F)(F)C(F)(F)C(F)(F)C(F)(F)F)C(F)(F)C(F)(F)C(F)(F)C(F)(F)F [Ex. 8, 1-(4,8-di-n-butoxynaphthyl)di-n-butylsulfonium di(1,1,2,2,3,3,4,4,4-nonafluorobutanesulfone)imide]
Molecular extinction coefficient (365 nm) [1]: 620 | PGMEA (amount necessary for dissolving the test compound) [2]: 100 µL

CCCCOc1ccc2ccc(OCCCC)c([S+](C(C)C)C(C)C)c2c1.O=S(=O)([N-]S(=O)(=O)C(F)(F)C(F)(F)C(F)(F)C(F)(F)F)C(F)(F)C(F)(F)C(F)(F)C(F)(F)F [Ex. 13, 1-(2,7-di-n-butoxynaphthyl)diisopropyl sulfonium di(1,1,2,2,3,3,4,4,4-nonafluorobutanesulfone)imide]
Molecular extinction coefficient (365 nm) [1]: 1030 | PGMEA (amount necessary for dissolving the test compound) [2]: 100 µL

CCCCOc1ccc2c(OCCCC)ccc([S+](CCCC)CCCC)c2c1.O=S(=O)([N-]S(=O)(=O)C(F)(F)C(F)(F)C(F)(F)C(F)(F)F)C(F)(F)C(F)(F)C(F)(F)C(F)(F)F [Ex. 3, 1-(4,7-di-n-butoxynaphthyl)di-n-butylsulfonium di(1,1,2,2,3,3,4,4,4-nonafluorobutanesulfone)imide]
Molecular extinction coefficient (365 nm) [1]: 810 | PGMEA (amount necessary for dissolving the test compound) [2]: 100 µL

COc1ccc2ccc(OC)c([S+](c3ccccc3)c3ccccc3)c2c1.O=S1(=O)[N-]S(=O)(=O)C(F)(F)C(F)(F)C1(F)F [C. Ex. 2, 1-(2,7-dimethoxynaphthyl)diphenylsulfonium 1,1,2,2,3,3-hexafluorotrimethylene sulfone imide, reference compound]
Molecular extinction coefficient (365 nm) [1]: 2010 | PGMEA (amount necessary for dissolving the test compound) [2]: 1400 µL

CCCCOc1ccc2c(OCCCC)ccc([S+](CCCC)CCCC)c2c1.O=S(=O)([N-]S(=O)(=O)C(F)(F)F)C(F)(F)F [Ex. 10, 1-(4,7-di-n-butoxynaphthyl)di-n-butylsulfonium di(1,1,1-trifluoromethanesulfone)imide]
Molecular extinction coefficient (365 nm) [1]: 940 | PGMEA (amount necessary for dissolving the test compound) [2]: 100 µL

CCCCOc1ccc2ccc(OCCCC)c([S+](C)C)c2c1.O=S(=O)([N-]S(=O)(=O)C(F)(F)C(F)(F)C(F)(F)C(F)(F)F)C(F)(F)C(F)(F)C(F)(F)C(F)(F)F [Ex. 2, 1-(2,7-di-n-butoxynaphthyl)dimethylsulfonium di(1,1,2,2,3,3,4,4,4-nonafluorobutanesulfone)imide]
Molecular extinction coefficient (365 nm) [1]: 480 | PGMEA (amount necessary for dissolving the test compound) [2]: 100 µL

CCCCOc1ccc2ccc(OCCCC)c([S+](CCCC)CCCC)c2c1.O=S1(=O)[N-]S(=O)(=O)C(F)(F)C(F)(F)C1(F)F [Ex. 4, 1-(2,7-di-n-butoxynaphthyl)di-n-butylsulfonium 1,1,2,2,3,3-hexafluorotrimethylene sulfone imide]
Molecular extinction coefficient (365 nm) [1]: 700 | PGMEA (amount necessary for dissolving the test compound) [2]: 200 µL

CCCCOc1ccc2ccc(OCCCC)c([S+](CCCC)CCCC)c2c1.O=S(=O)([N-]S(=O)(=O)C(F)(F)F)C(F)(F)F [Ex. 9, 1-(2,7-di-n-butoxynaphthyl)di-n-butylsulfonium di(1,1,1-trifluoromethanesulfone)imide]
Molecular extinction coefficient (365 nm) [1]: 560 | PGMEA (amount necessary for dissolving the test compound) [2]: 200 µL

CCCCOc1ccc([S+](CCCC)CCCC)c2c(OCCCC)cccc12.O=S(=O)([N-]S(=O)(=O)C(F)(F)F)C(F)(F)F [Ex. 7, 1-(4,8-di-n-butoxynaphthyl)di-n-butylsulfonium di(1,1,1-trifluoromethanesulfone)imide]
Molecular extinction coefficient (365 nm) [1]: 570 | PGMEA (amount necessary for dissolving the test compound) [2]: 100 µL

CCCCOc1ccc2ccc(OCCCC)c([S+](CCCC)CCCC)c2c1.F[P-](F)(F)(F)(F)F [C. Ex. 3, 1-(2,7-di-n-butoxynaphthyl)di-n-butylsulfonium hexafluorophosphate, reference compound]
Molecular extinction coefficient (365 nm) [1]: 490 | PGMEA (amount necessary for dissolving the test compound) [2]: 1900 µL | Solubility in PGMEA (in words) ([2]; PGMEA): exceptionally low solubility in PGMEA

O=S(=O)([N-]S(=O)(=O)C(F)(F)C(F)(F)C(F)(F)C(F)(F)F)C(F)(F)C(F)(F)C(F)(F)C(F)(F)F.c1ccc([S+](c2ccccc2)c2ccccc2)cc1 [C. Ex. 4, triphenylsulfonium di(1,1,2,2,3,3,4,4,4-nonafluorobutanesulfone)imide, reference compound]
Molecular extinction coefficient (365 nm) [1]: 0 | PGMEA (amount necessary for dissolving the test compound) [2]: 100 µL

CCCCOc1ccc2ccc(OCCCC)c([S+](C(C)C)C(C)C)c2c1.O=S(=O)([N-]S(=O)(=O)C(F)(F)F)C(F)(F)F [Ex. 12, 1-(2,7-di-n-butoxynaphthyl)diisopropyl sulfonium di(1,1,1-trifluoromethanesulfone)imide]
Molecular extinction coefficient (365 nm) [1]: 880 | PGMEA (amount necessary for dissolving the test compound) [2]: 100 µL

CCCCOc1ccc2ccc(OCCCC)c([S+](c3ccccc3)c3ccccc3)c2c1.O=S(=O)([N-]S(=O)(=O)C(F)(F)C(F)(F)C(F)(F)C(F)(F)F)C(F)(F)C(F)(F)C(F)(F)C(F)(F)F [C. Ex. 5, 1-(2,7-di-n-butoxynaphthyl)diphenylsulfonium di(1,1,2,2,3,3,4,4,4-nonafluorobutanesulfone)imide, reference compound]
Molecular extinction coefficient (365 nm) [1]: 2930 | PGMEA (amount necessary for dissolving the test compound) [2]: 100 µL

CCCCOc1ccc2ccc(OCCCC)c([S+](CCCC)CCCC)c2c1.O=S(=O)([O-])C(F)(F)C(F)(F)C(F)(F)C(F)(F)F [Ex. 6, 1-(2,7-di-n-butoxynaphthyl)di-n-butylsulfonium 1,1,2,2,3,3,4,4,4-nonafluorobutanesulfonate]
Molecular extinction coefficient (365 nm) [1]: 690 | PGMEA (amount necessary for dissolving the test compound) [2]: 100 µL

CCCCCCCCOc1ccc2ccc(OCCCCCCCC)c([S+](C)C)c2c1.O=S(=O)([N-]S(=O)(=O)C(F)(F)F)C(F)(F)F [Ex. 11, 1-(2,7-di-n-octoxynaphthyl)dimethylsulfonium di(1,1,1-trifluoromethanesulfone)imide]
Molecular extinction coefficient (365 nm) [1]: 440 | PGMEA (amount necessary for dissolving the test compound) [2]: 100 µL

O=S1(=O)[N-]S(=O)(=O)C(F)(F)C(F)(F)C1(F)F.c1ccc([S+](c2ccccc2)c2ccccc2)cc1 [C. Ex. 1, triphenylsulfonium 1,1,2,2,3,3-hexafluorotrimethylene imide, reference compound]
Molecular extinction coefficient (365 nm) [1]: 0 | PGMEA (amount necessary for dissolving the test compound) [2]: 300 µL
